Data published in ChEMBL document CHEMBL1275354, “Anticonvulsant activity of 2,4(1H)-diarylimidazoles in mice and rats acute seizure models” (Bioorg Med Chem, 2010).
Active and inactive are the calls of the source. The rule behind the calls is not given here.

Legend:
Mus musculus [1] = assay: Anticonvulsant activity in albino CF1 mouse assessed as protection against subcutaneous metrazole-induced seizures at 300 mg/kg, ip after 0.5 hrs; format: functional, organism-based; parameters: dose 300 mg/kg
Mus musculus [2] = assay: Anticonvulsant activity against maximal electroshock-induced seizures in ip dosed albino CF1 mouse assessed as minimum effective dose after 4 hrs; format: functional; conditions: read-out: MED
Mus musculus [3] = assay: Neurotoxicity in albino CF1 mouse assessed as minimal motor impairment at 30 to 300 mg/kg, ip after 4 hrs by rotarod test; conditions: in vivo
Mus musculus [4] = assay: Anticonvulsant activity in albino CF1 mouse assessed as protection against maximal electroshock-induced seizures at 300 mg/kg, ip after 4 hrs; format: functional, organism-based; parameters: dose 300 mg/kg
Mus musculus [5] = assay: Anticonvulsant activity in albino CF1 mouse assessed as protection against maximal electroshock-induced seizures at 30 mg/kg, ip after 0.5 hrs; format: functional, organism-based; parameters: dose 30 mg/kg
Mus musculus [6] = assay: Neurotoxicity in albino CF1 mouse assessed as minimal motor impairment at 30 to 300 mg/kg, ip after 0.5 hrs by rotarod test; conditions: in vivo
Mus musculus [7] = assay: Anticonvulsant activity against subcutaneous metrazole-induced seizures in ip dosed albino CF1 mouse assessed as minimum effective dose after 4 hrs; format: functional; conditions: albino CF1, 4 h, read-out: MED
Mus musculus [8] = assay: Anticonvulsant activity in albino CF1 mouse assessed as protection against maximal electroshock-induced seizures at 300 mg/kg, ip after 0.5 hrs; format: functional, organism-based; parameters: dose 300 mg/kg
Mus musculus [9] = assay: Neurotoxicity in albino CF1 mouse assessed as minimal motor impairment at 3 mg/kg, ip after 0.5 hrs by rotarod test; format: toxicity, organism-based; parameters: dose 3 mg/kg, route intraperitoneal; conditions: in vivo
Mus musculus [10] = assay: Neurotoxicity in albino CF1 mouse assessed as minimal motor impairment at 100 mg/kg, ip after 4 hrs by rotarod test; format: toxicity, organism-based; parameters: dose 100 mg/kg, route intraperitoneal; conditions: in vivo
Mus musculus [11] = assay: Anticonvulsant activity against maximal electroshock-induced seizures in ip dosed albino CF1 mouse assessed as minimum effective dose after 0.5 hrs; format: functional; conditions: read-out: MED
Mus musculus [12] = assay: Anticonvulsant activity in albino CF1 mouse assessed as protection against subcutaneous metrazole-induced seizures at 30 mg/kg, ip after 4 hrs; format: functional, organism-based; parameters: dose 30 mg/kg
Mus musculus [13] = assay: Anticonvulsant activity against subcutaneous metrazole-induced seizures in ip dosed albino CF1 mouse assessed as minimum effective dose after 0.5 hrs; format: functional; conditions: albino CF1, 0.5 h, read-out: MED
Mus musculus [14] = assay: Anticonvulsant activity in albino CF1 mouse assessed as protection against maximal electroshock-induced seizures at 3 mg/kg, ip after 0.5 hrs; format: functional, organism-based; parameters: dose 3 mg/kg
Mus musculus [15] = assay: Anticonvulsant activity in albino CF1 mouse assessed as protection against maximal electroshock-induced seizures at 10 mg/kg, ip after 0.5 hrs; format: functional, organism-based; parameters: dose 10 mg/kg
Mus musculus [16] = assay: Neurotoxicity in ip dosed albino CF1 mouse assessed as minimum dose required to cause toxicity after 0.5 hrs by rotarod test; format: organism-based; conditions: in vivo
Mus musculus [17] = assay: Anticonvulsant activity in albino CF1 mouse assessed as protection against subcutaneous metrazole-induced seizures at 100 mg/kg, ip after 0.5 hrs; format: functional, organism-based; parameters: dose 100 mg/kg
Mus musculus [18] = assay: Neurotoxicity in albino CF1 mouse assessed as minimal motor impairment at 10 mg/kg, ip after 0.5 hrs by rotarod test; format: toxicity, organism-based; parameters: dose 10 mg/kg, route intraperitoneal; conditions: in vivo
Mus musculus [19] = assay: Anticonvulsant activity in albino CF1 mouse assessed as protection against subcutaneous metrazole-induced seizures at 300 mg/kg, ip after 4 hrs; format: functional, organism-based; parameters: dose 300 mg/kg
Mus musculus [20] = assay: Anticonvulsant activity in albino CF1 mouse assessed as protection against subcutaneous metrazole-induced seizures at 30 mg/kg, ip after 0.5 hrs; format: functional, organism-based; parameters: dose 30 mg/kg
Mus musculus [21] = assay: Neurotoxicity in ip dosed albino CF1 mouse assessed as minimum dose required to cause toxicity after 4 hrs by rotarod test; format: organism-based; conditions: in vivo
Mus musculus [22] = assay: Anticonvulsant activity in albino CF1 mouse assessed as protection against subcutaneous metrazole-induced seizures at 100 mg/kg, ip after 4 hrs; format: functional, organism-based; parameters: dose 100 mg/kg
Mus musculus [23] = assay: Anticonvulsant activity in albino CF1 mouse assessed as protection against maximal electroshock-induced seizures at 30 mg/kg, ip after 4 hrs; format: functional, organism-based; parameters: dose 30 mg/kg
Mus musculus [24] = assay: Neurotoxicity in albino CF1 mouse assessed as minimal motor impairment at 30 mg/kg, ip after 4 hrs by rotarod test; format: toxicity, organism-based; parameters: dose 30 mg/kg, route intraperitoneal; conditions: in vivo
Mus musculus [25] = assay: Neurotoxicity in albino CF1 mouse assessed as minimal motor impairment at 30 mg/kg, ip after 0.5 hrs by rotarod test; format: toxicity, organism-based; parameters: dose 30 mg/kg, route intraperitoneal; conditions: in vivo

## FC(F)(F)c1cccc(-c2c[nH]c(-c3ccccc3)n2)c1
Mus musculus [1]
  Activity: inactive
Mus musculus [2]
  minimal effective dose: 100 mg/kg
Mus musculus [3]
  Activity: Non-toxic
Mus musculus [4]
  Activity: Active
Mus musculus [5]
  Activity: Active
Mus musculus [6]
  Activity: Non-toxic
Mus musculus [7]
  minimal effective dose: > 300 mg/kg
Mus musculus [8]
  Activity: Active
Mus musculus [9]
  Activity: Non-toxic
Mus musculus [10]
  Activity: Non-toxic
Mus musculus [11]
  minimal effective dose: > 30 mg/kg
Mus musculus [12]
  Activity: inactive
Mus musculus [13]
  minimal effective dose: > 300 mg/kg
Mus musculus [14]
  Activity: inactive
Mus musculus [15]
  Activity: inactive
Mus musculus [16]
  MED: 100 mg/kg
Mus musculus [17]
  Activity: inactive
Mus musculus [18]
  Activity: Non-toxic
Mus musculus [19]
  Activity: inactive
Mus musculus [20]
  Activity: inactive
Mus musculus [21]
  MED: 100 mg/kg
Mus musculus [22]
  Activity: inactive
Mus musculus [23]
  Activity: inactive
Mus musculus [24]
  Activity: Non-toxic
Mus musculus [25]
  Activity: Non-toxic
